In patent US10052304B2, “Compositions and methods for cancer therapy” (UNIVERSITY OF IOWA RESEARCH FOUNDATION, priority 2015, dated 2018):
“Also recorded” adds a separate entry of the source.

Assays:
[1] = system: NCI-H292 cells; assay: Clonogenic survival assay, NCI-H292 NSCLC cells; format: cell-based, human
Description: (§1) Treatment conditions for individual experiments are as described in the figure legends and summarized in the Supplemental Experimental Procedures.
(§2) 1-2×10^5 cells were plated in 60 mm cell culture dishes and grown in their respective media for 48 h before exposed to experimental conditions. […] For AdGPx1 experiments, cells were supplemented with 50 nM sodium selenite following transduction and throughout clonogenic growth. […] After treatment, cells were washed with PBS and clonogenic assay was completed in their respective media. Briefly, floating and attached cells were collected and total cells per plate were counted. An experimentally derived number of cells were plated into each well of a 6-well cell culture plate in their respective media. For HEL92.1.7 suspension cells, cells were seeded in a top layer of 0.4% (w/v) agarose to allow for quantifiable colony formation. […] Normalized survival fractions were calculated by comparing plating efficiencies of each treatment group against the control group within a given experiment.

[2] = system: H1299 cells; assay: Clonogenic survival assay, H1299 NSCLC cells; format: cell-based, human
Description: as §1, §2

[3] = system: OCI-MY5; assay: Colony formation on soft agar, OCI-MY5 myeloma cells; format: cell-based, human; details: 1 h treatment, colonies after 10-14 days
Description: A two-layer agar system was used, and colonies were visualized after 10-14 days.

[4] = system: NCI-H292 xenografts
Description: Nude mice were injected with NCI-H292 cells into their flanks and tumors grown to a diameter of 2-4 mm.
Female 4-6 week old female athymic-nu/nu mice were purchased from Envigo (previously Harlan Laboratories) and housed in the Animal Care Facility at the University of Iowa (Iowa City, Iowa), and all procedures were approved by the University of Iowa Institutional Animal Care and Use Committee and conformed to NIH guidelines. 1×10^6 H292 or U87 cells were injected subcutaneously into the right rear flank and mice were euthanized and sacrificed when tumor length exceeded 1.5 cm in any dimension. Treatment regimens were as described in the text and are summarized in the Supplemental Experimental Procedures.
Female 4-6 week old female athymic-nu/nu mice were purchased from Envigo (previously Harlan Laboratories) and housed in the Animal Care Facility at the University of Iowa (Iowa City, Iowa), and all procedures were approved by the University of Iowa Institutional Animal Care and Use Committee and conformed to NIH guidelines. 1×10^6 H292 or U87 cells were injected subcutaneously into the right rear flank. […] Tumors were measured every other day with Vernier calipers (volume=(length×width×(width/2)) and mice were euthanized and sacrificed when tumor length exceeded 1.5 cm in any dimension.

[5] = system: ARP1 myeloma cells; assay: Luciferase-labeled ARP1 myeloma xenograft, intravenous injection, NOD-SCID mice; format: in vivo; details: ascorbate 4 g/kg daily
Description: The first model used is a luciferase labeled human myeloma cell line ARP1.

[6] = system: GBM cells; assay: Cellular labile iron pool (Calcein-AM flow cytometry), GBM cells; format: cell-based, human; details: increasing doses of ascorbate
Description: The labile iron pool (LIP) was visualized using the fluorescent dye Calcein-AM as previously described (Epsztejn et al., 1997) with modifications. After labeling, samples were divided into two flow cytometry sample tubes, to which 100 μM 2′,2′-bipyridyl (BIP) was added to one tube and analyzed by flow cytometry. BIP tubes were incubated for at least 15 minutes before analysis to allow for full chelation of intracellular labile iron. The LIP (A.U.)=MFIBIP−MFINoBIP was normalized against the control samples to calculate the relative labile iron pool.
The labile iron pool (LIP) was visualized using the fluorescent dye Calcein-AM as previously described with modifications (Epsztejn et al., 1997). Briefly, after sample treatment, cells were trypsinized, spun at 1,200 rpm for 5 min, and resuspended at approximately 1×10^6 cells mL-1 in 500 nM Calcein-AM in PBS. Samples were incubated for 15 min at 4% O2 in a humidity controlled environment (37° C., 5% CO2). Subsequently, samples were pelleted, washed in PBS, and resuspended in 1 mL PBS before dividing each sample into two flow cytometry sample tubes, to which 100 μM 2′,2′-bipyridyl (BIP) was added to one tube. Samples were kept at room temperature and analyzed on a LSR II Flow Cytometer (BD Biosciences; λex=488 nm, λem=515/20 nm). […]

[7] = system: aconitase; assay: Total cellular aconitase activity after ascorbate exposure; format: cell-based, human; details: 15 pmol cell^−1 ascorbate for 1 h, NSCLC cell lysates
Description: Exponentially growing cells were scraped and frozen as dry pellets until assayed for total activity. Aconitase activity was measured as the rate of appearance of NADPH (at 340 nm; Beckman DU 800 spectrophotometer, Brea, Calif.) for 45 min during the reaction of 200 μg total sample protein with 200 μM NADP^+ and 10 U isocitrate dehydrogenase as previously described (Case et al., 2011). Maximal ETC complex activity was measured as previously described (Birch-Machin et al., 1994). Complex I activity was quantified as the rate of rotenone-inhibitable NADH oxidation (320 nm; c=6.22 mM^−1 cm^−1). Complex II activity as the difference in the rate of DCIP reduction in the presence and absence of succinate (at 600 nm; ε=19.1 mM^−1 cm^−1). Complex IV activity was assayed as the rate of oxidation of cytochrome c ([…]; ε=19.6 mM^−1 cm^−1). Rates of activities were normalized to total protein by Lowry.
Exponentially growing cells were scraped and frozen as dry pellets until assayed for total aconitase activity adapted from as previously described (Case et al., 2011). […] Protein was quantified by the Lowry method (Lowry et al., 1951). Aconitase activity was measured as the rate of appearance of NADPH (at 340 nm; Beckman DU 800 spectrophotometer, Brea, Calif.) for 45 min during the reaction of 200 μg total sample protein with 200 μM NADP+ and 10 U isocitrate dehydrogenase.

[8] = 1 h ascorbate + 5 μM carboplatin + 2 Gy IR vs Carbo+IR alone

## O=C1O[C@H]([C@@H](O)CO)C(O)=C1O [ascorbate, L-ascorbic acid]
[1]; [8]
  sensitization to carboplatin + IR (clonogenic survival): significantly increased sensitivity to Carbo+IR; also recorded: selectively sensitized
[1]; ascorbate alone, 1 h exposure
  clonogenic survival / cell killing: more clonogenic cell killing in NSCLC cell lines than chemotherapy plus radiation; also recorded: dose-dependent clonogenic cell killing
[2]; [8]
  sensitization to carboplatin + IR (clonogenic survival): significantly increased sensitivity to Carbo+IR; also recorded: selectively sensitized
[2]; ascorbate alone, 1 h exposure
  clonogenic survival / cell killing: more clonogenic cell killing in NSCLC cell lines than chemotherapy plus radiation; also recorded: dose-dependent clonogenic cell killing
[3]
  ascorbate dose giving complete growth inhibition (colony formation): ≥ 10 pmol/cell
[4]; Example 1: ascorbate 4 g/kg IP daily + 12 Gy/6fx IR + weekly 15 mg/kg carboplatin vs chemo-radiation alone
  survival of xenograft-bearing mice: survived significantly longer
[4]; Example 1: ascorbate 4 g/kg IP daily, alone or with chemo-radiation
  tolerability (lack of weight loss): well-tolerated
[4]; Example 4: ascorbate 4 g kg^−1 IP daily
  tolerability (mouse weight): well tolerated
[4]; Example 4: ascorbate 4 g kg^−1 IP daily + 12 Gy IR/2 fractions + weekly 15 mg kg^−1 CPL
  overall survival: significantly increased overall survival
[5]
  tumor growth rate: significantly decreased tumor growth rate
[5]; approximately 15 days
  decrease of mean tumor fluorescent intensity vs control: 59%
[6]
  cellular LIP after ascorbate: significant dose-dependent ascorbate-induced increases in cellular LIP
[7]
  aconitase activity: inactivation
